Results published in patent publication US20230398130A1, “METHODS AND COMPOSITIONS FOR DIFFERENTIATING STEM CELLS” (Massachusetts Institute of Technology, priority 2020, published 2023).
Entries after “also recorded” stand apart in the source; their conditions may differ.

Experiments:
[1] = In vivo oral gavage of KPT-330 every other day for two weeks: body weight; parameters: species or system C57BL/6 wild-type mice
Experimental: Following a similar protocol as previously reported for SINE treatment in the context of cancer (Arango et al., 2017; Azmi et al., 2013; Hing et al., 2016; Zheng et al., 2014), KPT-330 was administered at a dose 10 mg/kg via oral gavage every other day over a two-week span in C57BL/6 wild-type mice, and body weight was monitored for any clear toxicity. […] Given animal weight loss on the standard chemotherapeutic dosage regimen, and additional evidence that sustained dosage of SINEs adversely impacts T cell populations (Tyler et al., 2017), Applicants sought to explore dosing regimens well below 10 mg/kg, to see if a pro-Paneth phenotype may exist below potential toxicities. […] Applicants tracked animal weight every other day, and at day 14 collected the proximal and distal thirds of the small intestine for histological quantification of Paneth, stem, and goblet populations (FIG. 26A). […] Paneth cells were counted within well preserved crypts, with at minimum 30 crypts quantified per animal (representative images FIG. 30C) and then averaged to get mean Paneth cells per crypt in distal and proximal thirds of the small intestine. […] Applicants additionally quantified the abundance of Olfm4+ stem cells as well as PAS+ goblet cells within the same animals to ascertain whether the effect of SINE treatment was restricted to the Paneth cell compartment (representative images FIG. 30D,E). […]

Paneth cells = assay: In vivo oral gavage of KPT-330 every other day for two weeks: histological counting of Paneth, Olfm4+ stem and PAS+ goblet cells in small intestine; parameters: species or system C57BL/6 wild-type mice
Experimental: Applicants tracked animal weight every other day, and at day 14 collected the proximal and distal thirds of the small intestine for histological quantification of Paneth, stem, and goblet populations (FIG. 26A). […] Samples were prepared for histology by the 'swiss-roll' technique, and following staining, were blinded and randomized before manual counting of well-preserved features. […] Animal study. 8-10 weeks old wild type C57BL/6NCrl male mice (#027) were purchased from Charles River. […] All animal studies are approved by the Committee on Animal Care (CAC) at Massachusetts Institute of Technology. Histology. The small intestine (SI) was collected from mice and divided into three parts. Only proximal and distal SI were kept in PBS, and medial SI was discarded. Each SI was opened longitudinally and washed in PBS. […] Fixed tissues were embedded in paraffin, and […] sections were mounted on slides. […] For McManus Periodic Acid Schiff (PAS) reaction, slides were deparaffinized, oxidized in periodic acid, and stained with Schiff reagent (Poly Scientific, s272) followed by counterstaining with Harris Hematoxylin. Slides were scanned by Aperio Slide Scanner (Leica) and cells were counted on Aperio eSlide Manager. Slides were randomized before counting, and all cell types were counted in all well-preserved crypts along the longitudinal crypt-villus axis. […] Because Paneth cell number and quality is known to physiologically change along the length of the small intestine, and diseases associated with Paneth cells most frequently present distally^56, Applicants sought to profile how XPO1 inhibition may differentially affect proximal and distal small intestine. Applicants tracked animal weight every other day and collected the proximal and distal thirds of the small intestine at day 14 for histological quantification of Paneth, stem, and goblet populations (FIG. 61A). […] Paneth cells were counted within well-preserved crypts-with at least 30 crypts quantified per animal (representative images FIG. 62C) and the counts were averaged. […] Animal study. 8-10 weeks old wild type C57BL/6NCrl male mice (#027) were purchased from Charles River. […] All animal studies are approved by the Committee on Animal Care (CAC) at Massachusetts Institute of Technology. Histology. The small intestine (SI) was collected from mice and divided into three parts. Only proximal and distal SI were kept in PBS, and medial SI was discarded. Each SI was opened longitudinally and washed in PBS. […] Fixed tissues were embedded in paraffin, and […] sections were mounted on slides. […] For McManus Periodic Acid Schiff (PAS) reaction, slides were deparaffinized, oxidized in periodic acid, and stained with Schiff reagent (Poly Scientific, s272) followed by counterstaining with Harris Hematoxylin. Slides were scanned by Aperio Slide Scanner (Leica) and cells were counted on Aperio eSlide Manager. Slides were blinded and randomized before counting, and all cell types were counted in all well-preserved crypts along the longitudinal crypt-villus axis (Paneth cell: >30 crypts, Olfm4+ cell: ≥17 crypts, Goblet cell: >15 villi, per sample). For the Goblet cell images, the samples that include less than 15 well-preserved crypt-villus axes were excluded, which was predetermined.

[2] = test system: human small intestinal organoids; assay: Immunofluorescent imaging for LYZ, human small intestinal organoids; assay type: cell-based; details: 160 nM KPT-330, 6 days
From the text: To extend the observations from the murine organoid system, Applicants sought to examine how XPO1 inhibition via KPT-330 may effect human small intestinal stem cells by utilizing a stem-cell enriched human small intestinal organoid model^46 (see Methods).
Immunofluorescent imaging. For immunofluorescence staining of organoids, intestinal organoids in Matrigel were fixed with 4% paraformaldehyde, then transferred to centrifuge tube. After washing with PBS, the isolated organoids were permeabilized with 1% Triton X followed by incubation with blocking buffer (1% BSA+3% Donkey Serum+0.2% Triton X in PBS) at RT. The organoids were then stained with primary antibodies and fluorescent dye-labeled secondary antibodies as well as with DAPI. Slides were covered with […] ® Mounting Media (VECTOR). […] Images were acquired with a confocal laser scanning microscope (Nikon Eclipse 90i). For the analysis of Lysozyme+ cells per organoid area, the number of counted Lysozyme+ cells were normalized to measured organoid surface area. Image J was used for the data analysis.

O=C(/C=C\n1cnc(-c2cc(C(F)(F)F)cc(C(F)(F)F)c2)n1)NNc1cnccn1 [KPT-330]
body weight ([1]; 0.01, 0.05 or 0.2 mg/kg oral gavage every other day): no significant changes in animal weight at any dose
body weight ([1]; 10 mg/kg oral gavage every other day): significant weight loss indicative of toxicity
Olfm4+ stem cells per crypt (Paneth cells; 0.01 mg/kg, distal SI, day 14): significant increase in Olfm4+ stem cells
fraction of crypts with more Paneth cells than the vehicle 90th percentile cutoff (5 per crypt) (Paneth cells; 0.01 mg/kg, distal small intestine): 27.9%
Paneth cell abundance per crypt (Paneth cells; 0.01 mg/kg, distal small intestine, day 14): significant increases in Paneth cell abundance
Paneth cell abundance per crypt (Paneth cells; 0.01 mg/kg, proximal small intestine, day 14): significant increases in Paneth cell abundance
fraction of crypts with more Paneth cells than the vehicle 90th percentile cutoff (4 per crypt) (Paneth cells; 0.2 mg/kg, proximal small intestine): 15.5%
Paneth cell abundance per crypt (Paneth cells; 0.2 mg/kg, proximal small intestine, day 14): significant increases in Paneth cell abundance
PAS+ goblet cell population (Paneth cells; 0.01-0.2 mg/kg, proximal and distal SI, day 14): did not overserve any significant changes; also recorded: did not identify any significant changes
additional Paneth cells per crypt in vivo (Paneth cells; low dose KPT-330): 0.5-1 Paneth cells per crypt
LYZ+ cell abundance (IF imaging) [2]: increased LYZ+ cell abundance
